Test results from PMC12605013, “SAG1.3-derived Frizzled-targeting small-molecule compounds” (The Journal of Biological Chemistry, 2025).
Like-named read-outs stand apart in the source and are kept apart here.

Legend:
[1] = tested on: human FZD5; assay: TOPFlash reporter gene assay in ΔFZD1–10 HEK293T cells transfected with HiBiT-FZD5; type: cell-based; details: for IC50: Homo sapiens, HEK-293T, 300 ng/ml WNT-3A, HiBiT-FZD5
[2] = biological target: T1, Nluc-FZD7 (Homo sapiens, UniProt O75084); assay: BRET-based BODIPY-cyclopamine competition binding at Nluc-FZD7; details: BODIPY-cyclopamine 200 nM; ΔFZD1-10 HEK293T cells; read-out: pIC50 (11) mean ± SEM, Nluc-FZD7 (converted)
T1 construct: expressed in transfected cells; host or cells: ΔFZD1–10 HEK293T cells
Protocol: (§1) After 24 h, cells were washed once with Hanks' balanced salt solution (HBSS), followed by the addition of 80 μl of HBSS. Next, 10 μl of the competitive ligand, that is, the tested SAG1.3 derivative (either in different concentrations for the concentration–response curves or at a final concentration of 10 μM for the first screens) and 10 μl of the fluorescent tracer BODIPY–cyclopamine (final concentration: 300 nM for the first screens, 200 nM for the concentration–response experiments) were added. All serial dilutions were prepared in HBSS. The cells were incubated for 90 min at 37 °C without additional CO2, after which 10 μl of luciferase substrate diluted in HBSS (furimazine; Promega, N1572, final dilution: 1:1000 for first screening) and coelenterazine h (Biosynth; final concentration: 5 μM for concentration–response experiments) were added to the cells. Following a 10 min incubation period in the dark, the measurement was started on a BMG Labtech ClarioStar or TECAN Spark multimode microplate reader, prewarmed to 37 °C. Nluc bioluminescence was detected between 460 and 490 nm (ClarioStar) or 460 and 500 nm (TECAN Spark). The emission of the fluorescent tracer was detected between 520 and 550 nm (ClarioStar) or between 520 and 560 nm (TECAN Spark). […]

[3] = biological target: T2, ΔCRD-Nluc-FZD6 (Homo sapiens, UniProt O60353); assay: BRET-based BODIPY-cyclopamine competition binding at FZD6 lacking the CRD; details: BODIPY-cyclopamine 200 nM; ΔFZD1-10 HEK293T cells; read-out: pIC50 (11) mean ± SEM, ΔCRD-Nluc-FZD6 (converted)
T2 construct: amplifying ΔCRD-FZD6 (starting from D156) using SNAP-FZD6 as a template; expressed in transfected cells; host or cells: ΔFZD1–10 HEK293T cells
T2 sequence (O60353 156-706): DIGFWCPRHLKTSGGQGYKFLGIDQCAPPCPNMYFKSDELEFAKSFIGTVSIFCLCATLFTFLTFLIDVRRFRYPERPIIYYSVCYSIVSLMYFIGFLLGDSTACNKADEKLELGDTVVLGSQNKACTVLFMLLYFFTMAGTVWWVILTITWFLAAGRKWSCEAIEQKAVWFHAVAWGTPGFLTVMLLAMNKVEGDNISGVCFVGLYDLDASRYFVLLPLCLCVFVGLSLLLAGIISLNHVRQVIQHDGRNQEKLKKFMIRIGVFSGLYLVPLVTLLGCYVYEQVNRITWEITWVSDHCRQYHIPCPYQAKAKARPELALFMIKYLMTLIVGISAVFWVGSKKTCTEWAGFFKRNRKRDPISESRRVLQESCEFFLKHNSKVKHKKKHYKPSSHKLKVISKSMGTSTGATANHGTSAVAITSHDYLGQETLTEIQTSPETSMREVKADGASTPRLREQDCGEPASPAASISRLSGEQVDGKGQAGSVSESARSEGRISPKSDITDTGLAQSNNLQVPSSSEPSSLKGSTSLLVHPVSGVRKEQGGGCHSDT
Protocol: as §1

[4] = biological target: T3, Nluc-FZD4 (Homo sapiens, UniProt Q9ULV1); assay: BRET-based BODIPY-cyclopamine competition binding at Nluc-FZD4; details: BODIPY-cyclopamine 200 nM; ΔFZD1-10 HEK293T cells; read-out: pIC50 (11) mean ± SEM, Nluc-FZD4 (converted)
T3 construct: expressed in transfected cells; host or cells: ΔFZD1–10 HEK293T cells
T3 sequence (Q9ULV1 37-537): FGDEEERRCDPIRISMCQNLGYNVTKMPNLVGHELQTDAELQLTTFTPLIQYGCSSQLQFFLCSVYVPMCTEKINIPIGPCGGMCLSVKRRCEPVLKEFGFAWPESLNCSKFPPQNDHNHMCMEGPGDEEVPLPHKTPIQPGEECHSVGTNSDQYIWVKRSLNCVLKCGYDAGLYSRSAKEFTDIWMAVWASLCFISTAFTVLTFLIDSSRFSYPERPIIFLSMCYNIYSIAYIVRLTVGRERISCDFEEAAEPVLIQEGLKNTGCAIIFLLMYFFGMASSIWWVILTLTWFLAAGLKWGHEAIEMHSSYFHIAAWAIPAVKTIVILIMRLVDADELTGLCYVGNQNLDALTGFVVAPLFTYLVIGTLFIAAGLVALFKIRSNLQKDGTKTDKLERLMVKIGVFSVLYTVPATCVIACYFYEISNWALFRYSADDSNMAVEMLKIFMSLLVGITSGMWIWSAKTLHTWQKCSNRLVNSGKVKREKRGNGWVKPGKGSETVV
Protocol: as §1

[5] = tested on: HiBiT-FZD4, HiBiT-FZD7 or HiBiT-FZD8; assay: TOPFlash reporter gene assay, test for paralog selectivity; details: 10 µM compound; 300 ng/mL WNT-3A
Protocol: The transfected cell suspension was then seeded (45,000 cells/well) into a PDL-coated, white opaque 96-well plate. One day after transfection, cells were washed once with HBSS, and 80 μl of serum-free DMEM containing 10 nM of the porcupine inhibitor C59 were added. […] All ligands/vehicle controls were diluted in serum-free DMEM containing 10 nM C59. One day after ligand stimulation, cells were washed once with HBSS, and the lysis was started using 1× Passive Lysis Buffer (Promega; catalog no.: E1910, 20 μl/well), after which the plate was shaken for 20 min at room temperature. Fluc and Rluc bioluminescence were then assessed using the Dual-Luciferase Assay System (Promega; catalog no.: E1910, 20 μl of both LARII [Luciferase Assay II reagent] and 1× Stop-and-Glo Reagent). Measurements were performed using a TECAN Spark multimode microplate reader.
For reporter gene assays, the TOPFlash ratio was defined as the ratio of β-catenin-dependent gene transcription (Fluc) over a constitutively expressed transfection control (Rluc). For all experiments, the calculated TOPFlash ratios were normalized to the respective vehicle conditions.
Experiments were performed in ΔFZD1-10 HEK293T cells transiently transfected with HiBiT-FZD4 (A), HiBiT-FZD7 (B) or HiBiT-FZD8 (C). Data represent mean values ± SEM from three independent experiments performed in triplicate. […]

CC(=O)Nc1cccc(C(=O)NC2CCC(N(Cc3cccc(-c4ccncc4)c3)C(=O)c3sc4ccccc4c3Cl)CC2)c1 (centres unmarked) [compound 11, N-((1r,4r)-4-(3-Acetamidobenzamido)cyclohexyl)-3-chloro-N-(3-(pyridin-4-yl)benzyl)benzo[b]thiophene-2-carboxamide]
IC50 ([1]; equal to the pIC50, read-out: IC50, inhibition of WNT-3A-induced TOPFlash response): 1200 nM
IC50 ([1]; read-out: pIC50, inhibition of WNT-3A-induced TOPFlash response (converted)): 1200 nM
Effect on WNT surrogate-induced TOPFlash signal ([1]; WNT surrogate 250 pM, coaddition of compound): could also be blocked
TOPFlash response to compound alone ([1]; absence of added WNT-3A): not inducing any effect
IC50 [2]: 891 nM
IC50 [3]: 851 nM
IC50 [4]: 955 nM
Subtype preference in TOPFlash assays [5]: did not show a subtype preference
